Data taken from patent US9549886B2, “Personal care formulations containing alkyl ketal esters and methods of manufacture” (SEGETIS, INC., priority 2010, dated 2017).
Several values for one entry are separate records, joined by “and”; a condition that tells them apart may be missing. Identical values can stand only once.

Key:
[1] = Three-component miscibility test (mixing in a vial at room temperature and shaking, visual clarity)
Description: The term “miscible” and its variations (“miscibility”, “compatibility”, and the like) are used herein as a synonym for “soluble”, i.e., a mixture of the materials by themselves form a “true” solution, in which one material is molecularly dispersed in the other, or in which one material is dispersed as droplets which have a longest dimension of less than 200 nm, such that the mixture is optically clear. […] A fully miscible alkyl ketal ester is soluble in another material, such as water, at all proportions from 99:1 to 1:99. A partially miscible alkyl ketal ester is immiscible in another material in proportions from greater than 30 parts of the alkyl ketal ester in 70 parts or less of the other material and miscible in other combinations. A sparingly miscible alkyl ketal ester is immiscible in another material or miscible in another material to the extent of less than 10 parts in 90 parts of the other material. […] Unless stated otherwise, miscibility is assessed at 25° C. […] By “macroscopically uniform,” it is meant that the formulation is uniform when viewed at a length scale of at least 10 micrometers.
In these tests, clear mixtures as observed without magnification from a distance of, e.g., 0.3 meters are considered to be “miscible,” whereas cloudy or phase separated mixtures are considered to be “immiscible.” […]
Three-component mixtures of ethyl-LGK, ethanol, and avobenzone were prepared by mixing the materials at various proportions at room temperature in a vial and shaking. […]
Three-component mixtures of ethyl-LGK, water, and oxybenzone were prepared by mixing the materials at various proportions at room temperature in a vial and shaking. […]
Three-component mixtures of Et-LGK, water, and phenoxyethanol were prepared by mixing the materials at various proportions at room temperature in a vial and shaking.
Three-component mixtures of N,N-diethyl-m-toluamide (DEET), ethyl-LGK, and water were prepared by mixing the materials at various proportions at room temperature in a vial and shaking.

[2] = Miscibility of alkyl ketal esters with water and organic compounds; type: physicochemical; conditions: for dissolves or is miscible with organic compounds to the extent of: organic compounds as listed in the block (alcohols, esters, oils, solvents), 80 parts of the ketal
Method: Unless stated otherwise, miscibility is assessed at 25° C.

[3] = Solubility of active agents in neat alkyl ketal esters (dissolution, storage at room temperature); conditions: for % solids dissolved in Et-LGK with heat, no precipitation: dissolved at 35-80° C.; for % solids dissolved in Et-LGK with heat, no precipitation / % solids dissolved in Et-LGK at room temperature, no precipitation: still soluble after storage at room temperature (24 hours to 5 days) where stated; for % solids dissolved in Et-LPK with heat, no precipitation: dissolved at 50-80° C. or with heat, still soluble after storage at room temperature (24 hours to 5 days); for % solids dissolved in Bu-LGK with heat, no precipitation: dissolved at 50-80° C., still soluble after 24 hours at room temperature where stated; for % solids in Bu-LGK that did not (completely) dissolve: dispersion or partially dissolved
[4] = Solubility of oxidation dye intermediates in hair dye bases (saturated solutions, UV-Vis); conditions: 27° C., 10 minutes

## COC(=O)CCC1(C)OCC(CO)O1 (centres unmarked) [methyl-LGK]
[1]; 50.0% ketal / 50.0% water, no oxybenzone
  Result (miscibility of ketal with water): Miscible
[2]; 25° C. unless stated otherwise
  miscible with water: in all proportions

## CCOC(=O)CCC1(C)OCCO1 [ethyl-LEK]
[2]; 25° C. unless stated otherwise
  miscible in water to the extent of: 5 parts per 95 parts of water by weight

## Oc1ccc(O)cc1 [Hydroquinone]
[3]; solvent Et-LGK
  % solids dissolved in Et-LGK with heat, no precipitation: 5%
[3]; solvent Et-LPK
  % solids dissolved in Et-LPK with heat, no precipitation: 10%

## OCCOc1ccccc1 [phenoxyethanol, Phenoxyethanol]
[1]
  amount dissolved / solubilized by Et-LGK/water cosolvent mixtures: ~50 % by weight

## CCCCOC(=O)CCC1(C)OCC(C)O1 (centres unmarked) [n-butyl-LPK]
[2]; 25° C. unless stated otherwise
  miscible with water to the extent of: about 1 part per 99 parts water
[2]
  dissolves or is miscible with organic compounds to the extent of: at least 20 parts of the organic compound in 80 parts

## O=C(CO)[C@H](O)CO [Erythrulose]
[3]; room temperature
  mixture with Bu-LGK at a ratio of 10/90: separated into distinct phases
  mixture with Et-LPK at a ratio of 10/90: separated into distinct phases
[3]; room temperature, still soluble after 24 hours
  mixture with Et-LGK at a ratio of 10/90: clear uniform solution

## COC(=O)c1ccc(O)cc1 [methyl paraben, Methyl paraben]
[1]; no ketal
  level at which by itself immiscible in water: 1 % by weight

## COc1cc(CCC(=O)CC(=O)CCc2ccc(O)c(OC)c2)ccc1O [Tetrahydrocurcuminoids, tetrahydrodiferuloylmethane]
[3]; solvent Bu-LGK
  % solids dissolved in Bu-LGK with heat, no precipitation: 5%
[3]; solvent Et-LGK
  % solids dissolved in Et-LGK at room temperature, no precipitation: 20%
[3]; solvent Et-LPK
  % solids dissolved in Et-LPK with heat, no precipitation: 5%

## CCCCCCC(O)CO (centres unmarked) [Caprylyl glycol]
[3]; solvent Et-LGK
  % solids dissolved in Et-LGK at room temperature, no precipitation: 15% and 20.8%

## Nc1ccc(N)cc1 [p-phenylenediamine]
[3]; solvent Bu-LGK
  % solids dissolved in Bu-LGK with heat, no precipitation: 5%
[3]; solvent Bu-LGK, insoluble
  % solids in Bu-LGK that did not (completely) dissolve: 25%
[3]; solvent Et-LGK
  % solids dissolved in Et-LGK with heat, no precipitation: 5%
[3]; solvent Et-LPK, insoluble, not completely dissolved or precipitated on room temperature storage
  % solids in Et-LPK that did not (completely) dissolve or precipitated at room temperature: 5% and 1%
[4]; hair dye base with 7.00% Et-LGK, pH 8.5
  Average Solubility % wt./wt., column 26B: 0.07 % wt./wt.
[4]; hair dye base with 7.00% Et-LGK, pH 10.2
  Average Solubility % wt./wt., column 26A: 0.07 % wt./wt.
[4]; hair dye base with 7.00% Et-LPK, pH 8.5
  Average Solubility % wt./wt., column 27B: <0.01 % wt./wt.
[4]; hair dye base with 7.00% Et-LPK, pH 10.2
  Average Solubility % wt./wt., second column headed 26A: 0 % wt./wt.

## COc1cc2c(cc1O)CCC(C)(C)O2 [Dimethylmethoxy Chromanol]
[3]; solvent Bu-LGK, still soluble after 24 hours / 1 day at room temperature
  % solids dissolved in Bu-LGK at room temperature, no precipitation: 2.5%
[3]; solvent Et-LGK
  % solids dissolved in Et-LGK at room temperature, no precipitation: 2.5%
[3]; solvent Et-LPK, still soluble after 24 hours / 1 day at room temperature where stated
  % solids dissolved in Et-LPK at room temperature, no precipitation: 2.5%

## COC1=C(OC)C(=O)C(C/C=C(\C)CC/C=C(\C)CC/C=C(\C)CC/C=C(\C)CC/C=C(\C)CC/C=C(\C)CC/C=C(\C)CC/C=C(\C)CC/C=C(\C)CCC=C(C)C)=C(C)C1=O [Coenzyme Q10, Ubiquinone]
[3]; solvent Bu-LGK, insoluble
  % solids in Bu-LGK that did not (completely) dissolve: 5%
[3]; solvent Et-LGK, insoluble, partially dissolved or precipitated on room temperature storage
  % solids in Et-LGK that did not (completely) dissolve or precipitated at room temperature: 3.7%

## CCCCOC(=O)CCC1(C)OCC(CO)O1 (centres unmarked) [n-butyl-LGK]
[2]; 25° C. unless stated otherwise
  miscible with water to the extent of: 1 part per 99 parts water
[2]
  dissolves or is miscible with organic compounds to the extent of: at least 20 parts of the organic compound in 80 parts

## CCCOC(=O)CCC1(C)OCC(CO)O1 (centres unmarked) [n-propyl-LGK]
[2]; 25° C. unless stated otherwise
  miscible with water to the extent of: 1 part per 99 parts water
